Tests used:
[1] = test system: retinal ganglion cells (RGCs); assay: Experimental autoimmune uveitis (EAU), RGC survival; assay type: in vivo; settings: R16-immunized Lewis rats, i.p. on days 3, 6, 9, 12 and 17; counted 3 weeks after immunization; mean±SD
Experimental: Induction of experimental autoimmune uveitis. To induce experimental autoimmune uveitis (EAU), Lewis rats were immunized with R16 (30 μg), a peptide derived from an ocular antigen IRBP emulsified in CFA containing 2.5 mg/ml M. tuberculosis. A total volume of 100 μl was injected s.c. into each rat at the root of the tail. Rats were then divided into three groups. On days 3, 6, 9, 12 and 17 after immunization the rats in the first group were injected i.p. with CSPG-DS (15 μg/rat), and rats in the second group were injected i.p. with methylprednisolone (MP. 30 mg/kg; Solu-Medrol, 125 mg/ml, Pharmacia & Upjohn, Puurs, Belgium). Rats in third group were left untreated.

[2] = test system: PC12 cells; assay: Neurite outgrowth assay in NGF-stimulated PC12 cells; assay type: cell-based, rat; settings: PC12 cells, NGF 10 ng/ml
Experimental: PC12 cell line: Rat pheochromocytoma (PC12) cells were cultured in DMEM containing 8% horse serum and either 8% FCS (culture medium) or 1% FCS (differentiation medium), and antibiotics. For assays of neurite outgrowth, the cells were plated (10^5 cell/well) on 13-mm glass coverslips, precoated with collagen (500 μg/ml) in 24-well plates. Neurite outgrowth assays: PC12 cells were cultured for 24-72 h while being stimulated with 10 ng/ml NGF, with or without CSPG-DSs. Cell morphology was visualized under a phase-contrast microscope and neurite lengths were measured using ImagePro. At least 200 cells were measured for each condition.

[3] = test system: PC12 cells; assay: LPA-induced neurite retraction in differentiated PC12 cells; assay type: cell-based, rat; settings: NGF-differentiated PC12 cells, LPA 1 μg/ml, 20 min
Experimental: PC12 cell line: Rat pheochromocytoma (PC12) cells were cultured in DMEM containing 8% horse serum and either 8% FCS (culture medium) or 1% FCS (differentiation medium), and antibiotics. For assays of neurite outgrowth, the cells were plated (10^5 cell/well) on 13-mm glass coverslips, precoated with collagen (500 μg/ml) in 24-well plates. Treatment of PC12 cells with lysophosphatidic acid (LPA). PC12 cells were placed and were differentiated for 3 days in the presence of 100 ng/ml NGF, in collagen-precoated culture dishes (Corning). […] The cells were then fixed with 4% paraformaldehyde (PFA) and analyzed by Nomarski microscopy. The longest neurite of each cell was measured and the results are expressed as their mean±SEM.

Compound: C[C@H]1C[C@@H]2[C@H]([C@@H](O)C[C@@]3(C)[C@H]2CC[C@]3(O)C(=O)COC(=O)CCC(=O)[O-])[C@@]2(C)C=CC(=O)C=C12.[Na+] [MP, reference compound]
- RGC loss relative to normal rats [1]: 59±1.6%

Compound: CC(=O)N[C@H]1C(O)O[C@H](CO)[C@H](O)[C@@H]1O[C@@H]1OC(C(=O)O)=C[C@H](O)[C@H]1O (stereo partly drawn) [Di-0S, 2-acetamido-2-deoxy-3-O-(β-D-gluco-4-enepyranosyluronic acid)-D-galactose]
- effect on neurite outgrowth [2]: no effect

Compound: lysophosphatidic acid [LPA, reference compound]
- neurite collapse by LPA alone [3]: induced neurite collapse

— patent US20070010484A1, “Method for treating or inhibiting the effects of injuries or diseases that result in neuronal degeneration and method for promoting neurogenesis” (YEDA RESEARCH AND DEVELOPMENT CO. LTD., priority 2003, published 2007)
